We go through 21 compounds from patent publication US20220331414A1, “LIPID COMPOUNDS AND LIPID NANOPARTICLE COMPOSITIONS” (Suzhou Abogen Biosciences Co., Ltd., priority 2020, published 2022).

Data set [1] in a line: Lipid nanoparticle size and polydispersity by dynamic light scattering. The data set is classed as physicochemical. Particulars: LNP of cationic lipid/DSPC/cholesterol/PEG-lipid 50:10:38.5:1.5 with mRNA. The procedure: (§1) Briefly, a cationic lipid provided herein, DSPC, cholesterol, and PEG-lipid were solubilized in ethanol at a molar ratio of 50:10:38.5:1.5, and mRNA were diluted in 10 to 50 mM citrate buffer, pH=4. The LNPs were prepared at a total lipid to mRNA weight ratio of approximately 10:1 to 30:1 by mixing the ethanolic lipid solution with the aqueous mRNA solution at a volume ratio of 1:3 using a microfluidic apparatus, total flow rate ranging from 9-30 mL/min. Ethanol were thereby removed and replaced by DPBS using dialysis. Finally, the lipid nanoparticles were filtered through a 0.2 μm sterile filter.
(§2) Lipid nanoparticle size were determined by dynamic light scattering using a Malvern Zetasizer Nano ZS (Malvern UK) using a 173° backscatter detection mode. The encapsulation efficiency of lipid nanoparticles were determined using a Quant-it Ribogreen RNA quantification assay kit (Thermo Fisher Scientific, UK) according to the manufacturer's instructions.

Data set [2] in a line: Encapsulation efficiency of lipid nanoparticles (Quant-it Ribogreen RNA assay). In kind it is physicochemical. As to conditions: LNP of cationic lipid/DSPC/cholesterol/PEG-lipid 50:10:38.5:1.5 with mRNA. The protocol:
as §1, §2

Data set [3] can be described thus: Apparent pKa of LNP formulations by TNS fluorescence assay. Particulars: LNP cationic lipid/DSPC/cholesterol/DMG-PEG 50/10/38.5/1.5 mol %, pH 3 to 9.
Description: TNS was prepared as a 300 uM stock solution in distilled water. LNP formulations were diluted to 0.1 mg/ml total lipid in 3 mL of buffered solutions containing 50 mM sodium citrate, 50 mM sodium phosphate, 50 mM sodium borate, and 30 mM sodium chloride where the pH ranged from 3 to 9. An aliquot of the TNS solution was added to give a final concentration of 0.1 mg/ml and following vortex mixing fluorescence intensity was measured at room temperature in a Molecular Devices Spectramax iD3 spectrometer using excitation and mission wavelengths of 325 nm and 435 nm. A sigmoidal best fit analysis was applied to the fluorescence data and the pKa value was measured as the pH giving rise to half—maximal fluorescent intensity.

Consider `CCCCCCCCC(CCCCCC)COP(=O)(NCCN1CCC(F)(F)C1)OCC(CCCCCC)CCCCCCCC` (stereo not drawn) [Compound 60], for which, in data set [1], the polydispersity turned out to be 0.179 and the “size (nm)” value was found to be 85.33 nm. Moreover, the “Encapsulation Efficiency” value in data set [2] is listed as 55.0%. In addition, the “Apparant Pka” value in data set [3] is listed as 3.726.

Consider `CCCCCCCCC(CCCCCC)COP(=O)(NCCN1CC2CC2C1)OCC(CCCCCC)CCCCCCCC` (stereo not drawn) [Compound 62], for which, in data set [1], the polydispersity was found to be 0.338 and the “size (nm)” value is 56.35 nm. Besides, the “Encapsulation Efficiency” value in data set [2] is recorded as 89.9%. The “Apparant Pka” value in data set [3] is on record as 5.063.

For `CCCCCCCCC(CCCCCC)COP(=O)(NCCN(CCC)CCO)OCC(CCCCCC)CCCCCCCC` (stereo not drawn) [Compound 53], in data set [1], the polydispersity was 0.329 and the “size (nm)” value is 90.86 nm. The “Encapsulation Efficiency” value in data set [2] is 95.1%. The “Apparant Pka” value in data set [3] is given as 5.679.

On to `CCCCCCCC(CCCCCCC)COP(=O)(NCCN(CC)CC)OCC(CCCCCCC)CCCCCCC` [Compound 84], for which, in data set [1], the polydispersity came to 0.175 and the “size (nm)” value stood at 52.13 nm. Further, the “Encapsulation Efficiency” value in data set [2] is 89.9%. For the same compound, the “Apparant Pka” value in data set [3] came out at 5.484.

`CCCCCCCCCCCCCOP(=O)(NCCN1CCOCC1)OCCCCCCCCCCCCC` [Compound 15]: in data set [1], the polydispersity was found to be 0.059 and the “size (nm)” value was 104.3 nm. Besides, in data set [2], the “Encapsulation Efficiency” value is on record as 73.6%. The “Apparant Pka” value in data set [3] came out at 5.90.

Turning to `CCCCCCCCCCCCCOP(=O)(OCCCCCCCCCCCCC)N1CCC(N(C)C)CC1` [Compound 18], in data set [1], the polydispersity is 0.074 and the “size (nm)” value stood at 159.2 nm. The “Encapsulation Efficiency” value in data set [2] is reported as 94.3%. The “Apparant Pka” value in data set [3] is 6.16.

Regarding `CCCCCCCCC(CCCCCC)COP(=O)(NCCCN(C)C)OCC(CCCCCC)CCCCCCCC` (stereo not drawn) [Compound 7], in data set [1], the polydispersity is recorded as 0.1 and the “size (nm)” value was 73.54 nm. Moreover, in data set [2], the “Encapsulation Efficiency” value was 96.3%. In addition, the “Apparant Pka” value in data set [3] was found to be 7.20.

Regarding `CCCCCCCCC(CCCCCC)COP(=O)(NCCCN1CCCC1)OCC(CCCCCC)CCCCCCCC` (stereo not drawn) [Compound 25], in data set [1], the polydispersity is 0.057 and the “size (nm)” value is recorded as 109.7 nm. For the same compound, in data set [2], the “Encapsulation Efficiency” value is given as 52.3%. For the same compound, the “Apparant Pka” value in data set [3] is 5.49.

With `CCCCCCCCCOP(=O)(NCCCN(C)C)OCCCCCCCC(=O)OC(CCCCCCCC)CCCCCCCC` (stereo not drawn) [Compound 32], in data set [1], the polydispersity worked out at 0.077 and the “size (nm)” value is listed as 80.54 nm. Moreover, the “Encapsulation Efficiency” value in data set [2] is listed as 101.1%. Further, the “Apparant Pka” value in data set [3] amounted to 8.96.

With `CCCCCCCCCOP(=O)(NCCCCN(C)C)OCCCCCCCCC` [Compound 1], in data set [1], the polydispersity worked out at 0.074 and the “size (nm)” value stood at 54.18 nm. Further, the “Encapsulation Efficiency” value in data set [2] is listed as 90.3%. The “Apparant Pka” value in data set [3] came to 7.65.

Turning to `CCCCCCCCC(CCCC)COP(=O)(NCCN1CCCC1)OCC(CCCC)CCCCCCCC` (stereo not drawn) [Compound 73], in data set [1], the polydispersity was 0.101 and the “size (nm)” value was 70.54 nm. In addition, the “Encapsulation Efficiency” value in data set [2] is recorded as 91.4%. In data set [3], the “Apparant Pka” value is recorded as 7.003.

In the case of `CCCCCCCCCCCCCCOP(=O)(NCCCN(C)C)OCCCCCCCCCCCCCC` [Compound 11], in data set [1], the polydispersity is reported as 0.092 and the “size (nm)” value is recorded as 107.7 nm. Moreover, the “Encapsulation Efficiency” value in data set [2] is given as 81.3%. Moreover, in data set [3], the “Apparant Pka” value turned out to be 8.53.

On to `CCCCCCCCC(CCCCCC)COP(=O)(NCCN(CCO)CCCC)OCC(CCCCCC)CCCCCCCC` (stereo not drawn) [Compound 14], for which, in data set [1], the polydispersity was found to be 0.037 and the “size (nm)” value came out at 138.5 nm. Also, in data set [2], the “Encapsulation Efficiency” value is listed as 88.8%. The “Apparant Pka” value in data set [3] amounted to 5.64.

As for `CCCCCCCCC(CCCCCC)COP(=O)(NCCN(CCO)C1CCCC1)OCC(CCCCCC)CCCCCCCC` (stereo not drawn) [Compound 58], in data set [1], the polydispersity is 0.057 and the “size (nm)” value was 97.61 nm. Also, in data set [2], the “Encapsulation Efficiency” value is 88.8%. Further, the “Apparant Pka” value in data set [3] was found to be 5.681.

With `CCCCCCCCCCCCCOP(=O)(NCCN1CCCCC1)OCCCCCCCCCCCCC` [Compound 13], in data set [1], the polydispersity came out at 0.034 and the “size (nm)” value stood at 130.5 nm. Moreover, the “Encapsulation Efficiency” value in data set [2] came to 96.5%. The “Apparant Pka” value in data set [3] is reported as 7.79.

For `CCCCCCCCC(CCCCCC)COP(=O)(OCCN1CCCC1)OCC(CCCCCC)CCCCCCCC` (stereo not drawn) [Compound 76], in data set [1], the polydispersity worked out at 0.24 and the “size (nm)” value is given as 74.49 nm. For the same compound, in data set [2], the “Encapsulation Efficiency” value amounted to 76.6%. Further, the “Apparant Pka” value in data set [3] was 4.666.

In the case of `CC/C=C\CCC(CC/C=C\CC)COP(=O)(NCCN(CC)CC)OCC(CC/C=C\CC)CC/C=C\CC` [Compound 88], in data set [1], the polydispersity came to 0.205 and the “size (nm)” value came to 179.7 nm. The “Encapsulation Efficiency” value in data set [2] was 49.0%. Moreover, the “Apparant Pka” value in data set [3] is reported as 6.571.

Regarding `CCCCCCCCC(CCCCC)COP(=O)(NCCN1CCCC1)OCC(CCCCC)CCCCCCCC` (stereo not drawn) [Compound 74], in data set [1], the polydispersity is 0.162 and the “size (nm)” value worked out at 66.97 nm. Besides, the “Encapsulation Efficiency” value in data set [2] is listed as 96.9%. Moreover, the “Apparant Pka” value in data set [3] amounted to 6.381.

For the compound `CCCCCCCCC(CCCCCCCC)COP(=O)(NCCN(CC)CC)OCC(CCCCCC)CCCCCC` (stereo not drawn) [Compound 90], in data set [1], the polydispersity came to 0.242 and the “size (nm)” value was 56.48 nm. The “Encapsulation Efficiency” value in data set [2] is on record as 85.7%. Besides, the “Apparant Pka” value in data set [3] came out at 5.526.

In the case of `CCCCCCCCC(CCCCC)COP(=O)(NCCN(CC)CC)OCC(CCCCC)CCCCCCCC` (stereo not drawn) [Compound 72], in data set [1], the polydispersity is given as 0.154 and the “size (nm)” value came to 73.94 nm. Moreover, the “Encapsulation Efficiency” value in data set [2] is 95.6%. In data set [3], the “Apparant Pka” value was found to be 5.86.

For `CCCCCCCCC(CCCCCC)COP(=O)(NCCN1CCCC1)OCC(CCCCCC)CCCCCCCC` (stereo not drawn) [Compound 24], in data set [1], the polydispersity is 0.131 and the “size (nm)” value is given as 81.53 nm. In addition, the “Encapsulation Efficiency” value in data set [2] is given as 98.0%. Besides, the “Apparant Pka” value in data set [3] came to 6.63.
